Test results taken from the supplement of paper PMC10307832.

What was measured:
Test in all cases: relative viability (nuclei count vs DMSO), 5 days (fraction); higher = more cells survive
Ibrutinib + Navitoclax = compound: C=CC(=O)N1CCC[C@@H](n2nc(-c3ccc(Oc4ccccc4)cc3)c3c(N)ncnc32)C1 [Ibrutinib] + CC1(C)CCC(c2ccc(Cl)cc2)=C(CN2CCN(c3ccc(C(=O)NS(=O)(=O)c4ccc(N[C@H](CCN5CCOCC5)CSc5ccccc5)c(S(=O)(=O)C(F)(F)F)c4)cc3)CC2)C1 [Navitoclax] (partner 0.5 µM)
Summary of the method: (§1)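 Relative viability is defined as nuclei in treated wells over nuclei in vehicle wells. Duplicate plates were run and medians reported. Lung cancer cell lines in 1536-well plates were dosed by pin tool one day after seeding, with one drug or with a fixed anchor-drug dose plus five library-drug doses (not always all listed) in √10 steps, and nuclei were counted after 5 days.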

Ibrutinib + OSI-027 = compound: C=CC(=O)N1CCC[C@@H](n2nc(-c3ccc(Oc4ccccc4)cc3)c3c(N)ncnc32)C1 [Ibrutinib] + COc1cccc2cc(-c3nc([C@H]4CC[C@H](C(=O)O)CC4)n4ncnc(N)c34)[nH]c12 [OSI-027] (partner 0.5 µM)
Summary of the method: as §1

BMX-IN-1 + Palbociclib = compound: C=CC(=O)Nc1cc(-n2c(=O)ccc3cnc4ccc(-c5ccc(NS(C)(=O)=O)cc5)cc4c32)ccc1C [BMX-IN-1] + CC(=O)c1c(C)c2cnc(Nc3ccc(N4CCNCC4)cn3)nc2n(C2CCCC2)c1=O [Palbociclib] (partner 0.5 µM)
Summary of the method: as §1

PAC-1 + Pemetrexed = compound: C=CCc1cccc(/C=N/NC(=O)CN2CCN(Cc3ccccc3)CC2)c1O [PAC-1] + Nc1nc2[nH]cc(CCc3ccc(C(=O)N[C@@H](CCC(=O)O)C(=O)O)cc3)c2c(=O)[nH]1 [Pemetrexed] (partner 0.2 µM)
Summary of the method: as §1

In the case of UMC-11, the relative viability (Ibrutinib + Navitoclax; first compound 0.005 µM) is reported as 0.308, the relative viability (Ibrutinib + Navitoclax; first compound 0.01581 µM) is reported as 0.305 and the relative viability (Ibrutinib + Navitoclax; first compound 0.05 µM) is reported as 0.292. The relative viability (Ibrutinib + Navitoclax; first compound 0.1581 µM) was 0.298, the relative viability (Ibrutinib + Navitoclax; first compound 0.5 µM) was 0.374 and the relative viability (Ibrutinib + OSI-027; first compound 0.005 µM) was 0.306. It also gave a relative viability (Ibrutinib + OSI-027; first compound 0.01581 µM) of 0.441, a relative viability (Ibrutinib + OSI-027; first compound 0.05 µM) of 0.495 and a relative viability (Ibrutinib + OSI-027; first compound 0.1581 µM) of 0.541. The relative viability (Ibrutinib + OSI-027; first compound 0.5 µM) was 0.5, the relative viability (BMX-IN-1 + Palbociclib; first compound 0.02 µM) was 0.345 and the relative viability (BMX-IN-1 + Palbociclib; first compound 0.2 µM) was 0.336. The relative viability (BMX-IN-1 + Palbociclib; first compound 0.6325 µM) was 0.341, the relative viability (BMX-IN-1 + Palbociclib; first compound 2 µM) was 0.318 and the relative viability (PAC-1 + Pemetrexed; first compound 0.02 µM) was 0.78. It also gave a relative viability (PAC-1 + Pemetrexed; first compound 0.06325 µM) of 0.791, a relative viability (PAC-1 + Pemetrexed; first compound 0.2 µM) of 0.802 and a relative viability (PAC-1 + Pemetrexed; first compound 2 µM) of 0.79.
